Columns and labels:
MMP13 = MMP13 (Homo sapiens, UniProt P45452); experiment: MMP13 inhibition (Table 1); assay type: biochemical; details: read-out: percentage inhibition MMP13
[1] = tested on: IL-2-induced peritoneal recruitment of lymphocytes; experiment: IL-2-induced peritoneal recruitment of lymphocytes; assay type: in vivo, C3H/HEN mice; details: Mus musculus, Lymphocyte, po; 3 mg/kg p.o., 15 min prior to IL-2; mice; 24 h after IL-2
Description: Administration of IL-2 intraperitoneally causes migration of lymphocytes into the intraperitoneal cavity. This is a model for the cellular migration that occurs during inflammation.
C3H/HEN mice (Elevage Janvier, France) were intraperitoneally injected with IL-2 (Serono Pharmaceutical Research Institute, 20 μg/kg, in saline). Compounds of the invention were suspended in 0.5% carboxymethylcellulose (CMC)/0.25% tween-20 and were administered by s.c. or p.o. route (10 ml/kg) 15 min prior to administration of IL-2.
Twenty-four hours after administration of IL-2, peritoneal white blood cells were collected by 3 successive lavages of the peritoneal cavity with 5 ml phosphate buffered saline (PBS)-1 mM EDTA (+4° C.). The suspension was centrifuged (1700 g×10 min at +4° C.). The resulting pellet was suspended in 1 ml PBS-1 mM EDTA.
Lymphocytes were identified and counted using a Beckman/Coulter counter.
The animals were divided into 6 groups (6 mice each group):
Group 1: (baseline) received 0.5% CMC/0.25% tween-20 (vehicle of compound of the invention) and saline (vehicle of IL-2);
Group 2: (control IL-2) received 0.5% CMC/0.25% tween-20 and injection of IL-2;
Group 3: Experimental group (Compound of the invention Dose 1) received a compound of the invention and injection of IL-2;
Group 4: Experimental group (Compound of the invention Dose 2) received a compound of the invention and injection of IL-2;
Group 5: Experimental group (Compound of the invention Dose 3) received a compound of the invention and injection of IL-2;
Group 6: Reference group received reference compound dexamethasone and injection of IL-2.
Inhibition of lymphocyte recruitment was calculated as follows:
Where Ly 1=Number of lymphocytes in group 1 (E3/μl), Ly 2=Number of lymphocytes in group 2 (E3/μl), Ly X=Number of lymphocytes in group X (3-5) (E3/μl).

| inhibition at 0.1 µM (MMP13) [%] | inhibition at 5 µM (MMP13) [%] | Structure (SMILES) | inhibition in vivo at 3 mg/kg [1] [%] |
| --- | --- | --- | --- |
| 15 | 97 | O=CN(O)C(CCc1ccccc1)CS(=O)(=O)N1CCc2ccccc2C1 (centres unmarked) [Example 1, N-{1-[(3,4-dihydroisoquinolin-2(1H)-ylsulfonyl)methyl]-3-phenylpropyl}-N-hydroxyformamide] |  |
| 17 | 98 | CC1(C)OC[C@H](C(CS(=O)(=O)N2CCc3ccccc3C2)N(O)C=O)O1 (stereo partly drawn) [Example 2, N-{2-(3,4-dihydroisoquinolin-2(1H)-ylsulfonyl)-1-[(4S)-2,2-dimethyl-1,3-dioxolan-4-yl]ethyl}-N-hydroxyformamide] | 16 ± 13 |
| 6 | 98 | CCCCCC(CS(=O)(=O)N1CCc2ccccc2C1)N(O)C=O (centres unmarked) [Example 3, N-{1-[(3,4-dihydroisoquinolin-2(1H)-ylsulfonyl)methyl]hexyl}-N-hydroxyformamide] |  |
| 0 | 80 | O=CN(O)C(CS(=O)(=O)N1CCc2ccccc2C1)C1CC1 (centres unmarked) [Example 4, N-[1-cyclopropyl-2-(3,4-dihydroisoquinolin-2(1H)-ylsulfonyl)ethyl]-N-hydroxyformamide] |  |
|  | 93 | O=CN(O)C(CS(=O)(=O)N1CCc2ccccc2C1)c1cccnc1 (centres unmarked) [Example 10, N-[2-(3,4-dihydroisoquinolin-2(1H)-ylsulfonyl)-1-pyridin-3-ylethyl]-N-hydroxyformamide] |  |
|  | 48 | COc1cc2c(cc1OC)CN(S(=O)(=O)CC(CCc1ccccc1)N(O)C=O)CC2 (centres unmarked) [Example 12, N-(1-{[(6,7-dimethoxy-3,4-dihydroisoquinolin-2(1H)-yl)sulfonyl]methyl}-3-phenylpropyl)-N-hydroxyformamide] |  |
| 28 | 96 | COc1ccc(C(CS(=O)(=O)N2CCc3ccccc3C2)N(O)C=O)cn1 (centres unmarked) [Example 13, N-[2-(3,4-dihydroisoquinolin-2(1H)-ylsulfonyl)-1-(6-methoxypyridin-3-yl)ethyl]-N-hydroxyformamide] |  |
|  |  | CC1(C)OC[C@H](C(CS(=O)(=O)N2Cc3ccccc3C2)N(O)C=O)O1 (stereo partly drawn) [Example 16, N-{2-(1,3-dihydro-2H-isoindol-2-ylsulfonyl)-1-[(4S)-2,2-dimethyl-1,3-dioxolan-4-yl]ethyl}-N-hydroxyformamide] | 44 ± 7 |
|  |  | CC(C)c1ccc2c(c1)CCN(S(=O)(=O)CC([C@H]1COC(C)(C)O1)N(O)C=O)C2 (stereo partly drawn) [Example 18, N-{1-[(4S)-2,2-dimethyl-1,3-dioxolan-4-yl]-2-[(6-isopropyl-3,4-dihydroisoquinolin-2(1H)-yl)sulfonyl]ethyl}-N-hydroxyformamide] | 39 ± 7 |
|  |  | CC1(C)OC[C@H](C(CS(=O)(=O)N2CCc3ccc(Cl)cc3C2)N(O)C=O)O1 (stereo partly drawn) [Example 19, N-{2-[(7-chloro-3,4-dihydroisoquinolin-2(1H)-yl)sulfonyl]-1-[(4S)-2,2-dimethyl-1,3-dioxolan-4-yl]ethyl}-N-hydroxyformamide] | 62 ± 9 |
|  |  | O=CN(O)C(CS(=O)(=O)N1CCc2ccc(Cl)cc2C1)C1CCCC1 (centres unmarked) [Example 21, N-{2-[(7-chloro-3,4-dihydroisoquinolin-2(1H)-yl)sulfonyl]-1-cyclopentylethyl}-N-hydroxyformamide] | 43 ± 9 |
|  |  | O=CN(O)C(CS(=O)(=O)N1CCc2cc(C(F)(F)F)ccc2C1)C1CCCC1 (centres unmarked) [Example 25, N-(1-cyclopentyl-2-{[6-(trifluoromethyl)-3,4-dihydro-isoquinolin-2(1H)-yl]sulfonyl}ethyl)-N-hydroxyformamide] | 37 ± 7 |
|  |  | O=CN(O)[C@H](CS(=O)(=O)N1CCc2ccc(C(F)(F)F)cc2C1)[C@H]1CCCO1 [Example 27, N-hydroxy-N-((1S)-1-[(2R)-tetrahydrofuran-2-yl]-2-{[7-(trifluoromethyl)-3,4-dihydroisoquinolin-2(1H)-yl]sulfonyl}ethyl)formamide] | 46 ± 9 |
|  |  | CC1(C)OC[C@H](C(CS(=O)(=O)N2CCc3ccc(C(F)(F)F)cc3C2)N(O)C=O)O1 (stereo partly drawn) [Example 28, N-(1-[(4S)-2,2-dimethyl-1,3-dioxolan-4-yl]-2-{[7-(trifluoro-methyl)-3,4-dihydroisoquinolin-2(1H)-yl]sulfonyl}ethyl)-N-hydroxyformamide] | 62 ± 5 |
|  |  | O=CN(O)[C@H](CS(=O)(=O)N1Cc2ccc(F)cc2C1)[C@H]1CCCO1 [Example 29, N-{(1S)-2-[(5-fluoro-1,3-dihydro-2H-isoindol-2-yl)-sulfonyl]-1-[(2R)-tetrahydrofuran-2-yl]ethyl}-N-hydroxyformamide] | 29 ± 11 |
|  |  | CC(C)(Cc1ccccc1)C(CS(=O)(=O)N1CCc2cc(C(F)(F)F)ccc2C1)N(O)C=O (centres unmarked) [Example 31, N-[2,2-dimethyl-3-phenyl-1-({[6-(trifluoromethyl)-3,4-dihydroisoquinolin-2(1H)-yl]sulfonyl}methyl)propyl]-N-hydroxyformamide] | 31 ± 10 |
|  |  | CCC(CC)C(CS(=O)(=O)N1CCc2cc(C(C)C)ccc2C1)N(O)C=O (centres unmarked) [Example 35, N-(2-ethyl-1-{[(6-isopropyl-3,4-dihydroisoquinolin-2(1H)-yl)sulfonyl]methyl}butyl)-N-hydroxyformamide] | 50 ± 8 |
|  |  | CC(C)(C)CC(CS(=O)(=O)N1CCc2cc(Cl)c(Cl)cc2C1)N(O)C=O (centres unmarked) [Example 42, N-(1-{[(6,7-dichloro-3,4-dihydroisoquinolin-2(1H)-yl)-sulfonyl]methyl}-3,3-dimethylbutyl)-N-hydroxyformamide] | 40 ± 10 |
|  |  | O=CN(O)C(CO)CS(=O)(=O)N1CCc2cc(Cl)c(Cl)cc2C1 (centres unmarked) [Example 49, N-[2-[(6,7-dichloro-3,4-dihydroisoquinolin-2(1H)-yl)-sulfonyl]-1-(hydroxymethyl)ethyl]-N-hydroxyformamide] | 16 ± 12 |
|  |  | CC(C)C(CS(=O)(=O)N1CCc2ccc(-c3ccc(F)cc3)cc2C1)N(O)C=O (centres unmarked) [Example 50, N-[1-({[7-(4-fluorophenyl)-3,4-dihydroisoquinolin-2(1H)-yl]sulfonyl}methyl)-2-methylpropyl]-N-hydroxyformamide] | 32 ± 4 |
|  |  | CC(C)(CS(=O)(=O)N1CCc2ccc(Br)cc2C1)N(O)C=O [Example 56, N-{2-[(7-bromo-3,4-dihydroisoquinolin-2(1H)-yl)sulfonyl]-1,1-dimethylethyl}-N-hydroxyformamide] | 37 ± 8 |
|  |  | O=CN(O)C(COCc1ccccc1)CS(=O)(=O)N1CCc2ccc(C(F)(F)F)cc2C1 (centres unmarked) [Example 59, N-[2-(benzyloxy)-1-({[7-(trifluoromethyl)-3,4-dihydro-isoquinolin-2(1H)-yl]sulfonyl}methyl)ethyl]-N-hydroxyformamide] | 55 ± 9 |
|  |  | O=CN(O)C(COc1ccccc1)CS(=O)(=O)N1CCc2ccc(Cl)cc2C1 (centres unmarked) [Example 61, N-[2-[(7-chloro-3,4-dihydroisoquinolin-2(1H)-yl)sulfonyl]-1-(phenoxymethyl)ethyl]-N-hydroxyformamide] | 45 ± 9 |
|  |  | O=CN(O)C1(CS(=O)(=O)N2CCc3ccc(Cl)cc3C2)CCCC1 [Example 62, N-(1-{[(7-chloro-3,4-dihydroisoquinolin-2(1H)-yl)-sulfonyl]methyl}cyclopentyl)-N-hydroxyformamide] | 20 ± 9 |
|  |  | O=CN(O)C(CS(=O)(=O)N1CCc2ccc(-c3ccsc3)cc2C1)C1CCCC1 (centres unmarked) [Example 68, N-(1-cyclopentyl-2-{[7-(3-thienyl)-3,4-dihydroisoquinolin-2(1H)-yl]sulfonyl}ethyl)-N-hydroxyformamide] | 33 ± 7 |
|  |  | O=CN(O)C(CS(=O)(=O)N1Cc2ccccc2C1)C1CC1 (centres unmarked) [Example 72, N-[1-cyclopropyl-2-(1,3-dihydro-2H-isoindol-2-ylsulfonyl)-ethyl]-N-hydroxyformamide] | 41 ± 7 |
|  |  | O=CN(O)C(CS(=O)(=O)N1CCc2ccc(-c3ccc(F)cc3)cc2C1)C1CC1 (centres unmarked) [Example 75, N-(1-cyclopropyl-2-{[7-(4-fluorophenyl)-3,4-dihydro-isoquinolin-2(1H)-yl]sulfonyl}ethyl)-N-hydroxyformamide] | 26 ± 11 |
|  |  | O=CN(O)C(CCC(F)(F)F)CS(=O)(=O)N1CCc2ccc(Cl)cc2C1 (centres unmarked) [Example 76, N-(1-{[(7-chloro-3,4-dihydroisoquinolin-2(1H)-yl)-sulfonyl]methyl}-4,4,4-trifluorobutyl)-N-hydroxyformamide] | 45 ± 11 |
|  |  | O=CN(O)C(CS(=O)(=O)N1CCc2ccc(-c3ccncc3)cc2C1)C1CCCC1 (centres unmarked) [Example 79, N-{1-cyclopentyl-2-[(7-pyridin-4-yl-3,4-dihydroisoquinolin-2(1H)-yl)sulfonyl]ethyl}-N-hydroxyformamide] | 43 ± 10 |
